{"source": "paper PMC5218480", "about": "(PLoS ONE, 2017)", "test_system": "MV-4-11 cells", "experiment": "Gene expression microarray analysis (Affymetrix PrimeView) and GSEA", "type": "cell-based, human", "parameters": "RFU PODN (11730768_x_at) / Fold change /veh PODN (11730768_x_at) / RFU LINC00158 (11744669_a_at) / Fold change /veh LINC00158 (11744669_a_at) / RFU DUSP10 (11751237_a_at) / Fold change /veh DUSP10 (11751237_a_at) / RFU ID3 (11757404_x_at) / Fold change /veh ID3 (11757404_x_at) / RFU PLEKHG5 (11737974_s_at) / Fold change /veh PLEKHG5 (11737974_s_at) / RFU LRRC4B (11730491_at) / Fold change /veh LRRC4B (11730491_at) / RFU GIMAP4 (11747438_a_at) / Fold change /veh GIMAP4 (11747438_a_at) / RFU KRT8 (11758183_x_at) / Fold change /veh KRT8 (11758183_x_at) / RFU CNN1 (11734310_a_at) / Fold change /veh CNN1 (11734310_a_at) / RFU VPS37D (11726825_at) / Fold change /veh VPS37D (11726825_at) / RFU C10orf10 (11716522_x_at) / Fold change /veh C10orf10 (11716522_x_at) / RFU KIR2DL2 /// KIR2DL4 /// KIR2DL5A /// KIR2DL5B /// KIR2DS1 /// KIR2DS2 /// KIR2DS3 /// KIR2DS4 /// KIR3DL3 /// KIR3DL3 /// KIR3DS1 (11738374_at) / Fold change /veh KIR2DL2 /// KIR2DL4 /// KIR2DL5A /// KIR2DL5B /// KIR2DS1 /// KIR2DS2 /// KIR2DS3 /// KIR2DS4 /// KIR3DL3 /// KIR3DL3 /// KIR3DS1 (11738374_at) / RFU C1QL1 (11718748_at) / Fold change /veh C1QL1 (11718748_at) / RFU TMPRSS4 (11747572_a_at) / Fold change /veh TMPRSS4 (11747572_a_at) / RFU HAMP (11756126_x_at) / Fold change /veh HAMP (11756126_x_at) / RFU RNFT2 (11725882_a_at) / Fold change /veh RNFT2 (11725882_a_at) / RFU NR4A2 (11747474_a_at) / Fold change /veh NR4A2 (11747474_a_at) / RFU ABCC12 (11746883_a_at) / Fold change /veh ABCC12 (11746883_a_at) / RFU TMEM136 (11760407_x_at) / Fold change /veh TMEM136 (11760407_x_at) / RFU CLDN22 /// WWC2 (11732394_at) / Fold change /veh CLDN22 /// WWC2 (11732394_at) / RFU HLA-DPB1 (11760878_x_at) / Fold change /veh HLA-DPB1 (11760878_x_at) / RFU SPINT1 (11716480_a_at) / Fold change /veh SPINT1 (11716480_a_at) / RFU GAP43 (11754022_s_at) / Fold change /veh GAP43 (11754022_s_at) / RFU A4GNT (11735810_at) / Fold change /veh A4GNT (11735810_at) / RFU PRB3 (11715151_x_at) / Fold change /veh PRB3 (11715151_x_at) / RFU TUBB4B (11761932_at) / Fold change /veh TUBB4B (11761932_at) / RFU CAPN14 (11732068_a_at) / Fold change /veh CAPN14 (11732068_a_at) / RFU TMCC2 (11721928_a_at) / Fold change /veh TMCC2 (11721928_a_at) / RFU IRGQ (11745062_a_at) / Fold change /veh IRGQ (11745062_a_at) / RFU FAM174B (11720279_a_at) / Fold change /veh FAM174B (11720279_a_at) / RFU TMPRSS4 (11748680_a_at) / Fold change /veh TMPRSS4 (11748680_a_at) / RFU FAM212B (11763350_a_at) / Fold change /veh FAM212B (11763350_a_at) / RFU PLEKHG5 (11743358_a_at) / Fold change /veh PLEKHG5 (11743358_a_at) / RFU ZSCAN30 (11745921_a_at) / Fold change /veh ZSCAN30 (11745921_a_at) / RFU CMKLR1 (11741424_a_at) / Fold change /veh CMKLR1 (11741424_a_at) / RFU LOC101060620 /// MAPK8IP1 (11723275_at) / Fold change /veh LOC101060620 /// MAPK8IP1 (11723275_at) / RFU SPTSSB (11747773_x_at) / Fold change /veh SPTSSB (11747773_x_at) / RFU PRSS12 (11739890_at) / Fold change /veh PRSS12 (11739890_at) / RFU BIN1 (11741810_x_at) / Fold change /veh BIN1 (11741810_x_at) / RFU WNT11 (11732464_a_at) / Fold change /veh WNT11 (11732464_a_at) / RFU C10orf10 (11716521_a_at) / Fold change /veh C10orf10 (11716521_a_at) / RFU C5orf56 (11738089_at) / Fold change /veh C5orf56 (11738089_at) / RFU CYB561 (11721691_x_at) / Fold change /veh CYB561 (11721691_x_at) / RFU ANKRD19P (11752326_a_at) / Fold change /veh ANKRD19P (11752326_a_at) / RFU OR2T12 /// OR2T33 /// OR2T8 (11738714_s_at) / Fold change /veh OR2T12 /// OR2T33 /// OR2T8 (11738714_s_at) / RFU VCAN (11748164_a_at) / Fold change /veh VCAN (11748164_a_at) / RFU JSRP1 (11732532_at) / Fold change /veh JSRP1 (11732532_at) / RFU KRTAP10-11 (11738290_x_at) / Fold change /veh KRTAP10-11 (11738290_x_at) / RFU MYO3A (11730013_a_at) / Fold change /veh MYO3A (11730013_a_at) / RFU EBF3 (11725865_a_at) / Fold change /veh EBF3 (11725865_a_at) / RFU CAMK2N1 (11719241_x_at) / Fold change /veh CAMK2N1 (11719241_x_at) / RFU C5orf56 (11738088_a_at) / Fold change /veh C5orf56 (11738088_a_at) / RFU OLFML3 (11715873_a_at) / Fold change /veh OLFML3 (11715873_a_at) / RFU LOC100653217 /// NTM (11731650_a_at) / Fold change /veh LOC100653217 /// NTM (11731650_a_at) / RFU MAPK11 (11762145_a_at) / Fold change /veh MAPK11 (11762145_a_at) / RFU FIZ1 (11724087_x_at) / Fold change /veh FIZ1 (11724087_x_at) / RFU OASL (11726364_x_at) / Fold change /veh OASL (11726364_x_at) / RFU SOX15 (11748057_x_at) / Fold change /veh SOX15 (11748057_x_at) / RFU CD79A (11719716_a_at) / Fold change /veh CD79A (11719716_a_at) / RFU HIST1H1D (11736915_at) / Fold change /veh HIST1H1D (11736915_at) / RFU CASKIN2 (11723855_a_at) / Fold change /veh CASKIN2 (11723855_a_at) / RFU LOC730098 (11760151_x_at) / Fold change /veh LOC730098 (11760151_x_at) / RFU OR4N2 (11742367_at) / Fold change /veh OR4N2 (11742367_at) / RFU PRRT2 (11749266_a_at) / Fold change /veh PRRT2 (11749266_a_at) / RFU SNX32 (11753110_a_at) / Fold change /veh SNX32 (11753110_a_at) / RFU CDHR5 (11726645_a_at) / Fold change /veh CDHR5 (11726645_a_at) / RFU RCAN1 (11760418_a_at) / Fold change /veh RCAN1 (11760418_a_at) / RFU FAM167A (11723789_a_at) / Fold change /veh FAM167A (11723789_a_at) / RFU FAM26E (11764081_at) / Fold change /veh FAM26E (11764081_at) / RFU ISYNA1 (11749810_s_at) / Fold change /veh ISYNA1 (11749810_s_at) / RFU ACY1 (11761880_at) / Fold change /veh ACY1 (11761880_at) / RFU 11764098_at / Fold change /veh 11764098_at / RFU SAMD14 (11745864_x_at) / Fold change /veh SAMD14 (11745864_x_at) / RFU NPB (11741838_a_at) / Fold change /veh NPB (11741838_a_at) / RFU TMPRSS6 (11731388_a_at) / Fold change /veh TMPRSS6 (11731388_a_at) / RFU KRTAP10-2 (11738614_at) / Fold change /veh KRTAP10-2 (11738614_at) / RFU ARHGAP8 /// PRR5-ARHGAP8 (11727945_x_at) / Fold change /veh ARHGAP8 /// PRR5-ARHGAP8 (11727945_x_at) / RFU KRTAP5-7 /// NADSYN1 (11734609_at) / Fold change /veh KRTAP5-7 /// NADSYN1 (11734609_at) / RFU RASL12 (11751679_a_at) / Fold change /veh RASL12 (11751679_a_at) / RFU CDKN2B (11736163_a_at) / Fold change /veh CDKN2B (11736163_a_at) / RFU PRF1 (11729649_at) / Fold change /veh PRF1 (11729649_at) / RFU, ZNF638 /// ZNF638-IT1 / Fold change vs veh, ZNF638 /// ZNF638-IT1 / RFU, PANK3 / Fold change vs veh, PANK3 / RFU, SH3YL1 / Fold change vs veh, SH3YL1 / RFU, ZEB2 / Fold change vs veh, ZEB2 / RFU, NRIP1 / Fold change vs veh, NRIP1 / RFU, PTTG1IP / Fold change vs veh, PTTG1IP / RFU, CAPN2 / Fold change vs veh, CAPN2 / RFU, MED14 / Fold change vs veh, MED14 / RFU, SNORA58 / Fold change vs veh, SNORA58 / RFU, C1orf63 / Fold change vs veh, C1orf63 / RFU, LRRFIP1 / Fold change vs veh, LRRFIP1 / RFU, NDUFAF7 / Fold change vs veh, NDUFAF7 / RFU, SLC12A2 / Fold change vs veh, SLC12A2 / RFU, IBTK / Fold change vs veh, IBTK / RFU, ESF1 / Fold change vs veh, ESF1 / Fold change vs veh, TMEM50B / RFU, TAOK1 / Fold change vs veh, TAOK1 / RFU, ACBD3 / Fold change vs veh, ACBD3 / RFU, TMA16 / Fold change vs veh, TMA16 / RFU, RWDD3 / Fold change vs veh, RWDD3 / RFU, BCAT1 / Fold change vs veh, BCAT1 / RFU, EDEM3 / Fold change vs veh, EDEM3 / RFU, TMEM33 / Fold change vs veh, TMEM33 / RFU, WDR75 / Fold change vs veh, WDR75 / RFU, AHCTF1 / Fold change vs veh, AHCTF1 / RFU, TFRC / Fold change vs veh, TFRC / RFU, ZDHHC17 / Fold change vs veh, ZDHHC17 / RFU, NOM1 / Fold change vs veh, NOM1 / RFU, ARL8B / Fold change vs veh, ARL8B / RFU, ZBTB11 / Fold change vs veh, ZBTB11 / RFU, TAMM41 / Fold change vs veh, TAMM41 / RFU, KIAA1704 /// LOC100996395 / Fold change vs veh, KIAA1704 /// LOC100996395 / RFU, ING1 / Fold change vs veh, ING1 / RFU, TRMT61B / Fold change vs veh, TRMT61B / RFU, FUBP3 / Fold change vs veh, FUBP3 / RFU, TP53 / Fold change vs veh, TP53 / RFU, TNKS2 / Fold change vs veh, TNKS2 / RFU, ZFP14 / Fold change vs veh, ZFP14 / RFU, ACTR2 / Fold change vs veh, ACTR2 / RFU, PPP3R1 / Fold change vs veh, PPP3R1 / RFU, PIK3R1 / Fold change vs veh, PIK3R1 / RFU, HNRNPA1 / Fold change vs veh, HNRNPA1 / RFU, RNF170 / Fold change vs veh, RNF170 / RFU, ZNF28 / Fold change vs veh, ZNF28 / RFU, RNGTT / Fold change vs veh, RNGTT / RFU, OGT / Fold change vs veh, OGT / RFU, BRD1 / Fold change vs veh, BRD1 / RFU, MARS / Fold change vs veh, MARS / RFU, ZNF655 / Fold change vs veh, ZNF655 / RFU, FAHD1 / Fold change vs veh, FAHD1 / RFU, BDP1 / Fold change vs veh, BDP1 / RFU, LRRCC1 / Fold change vs veh, LRRCC1 / RFU, ARID1A / Fold change vs veh, ARID1A / RFU, ZNF146 / Fold change vs veh, ZNF146 / RFU, ZNF330 / Fold change vs veh, ZNF330 / RFU, GPN3 / Fold change vs veh, GPN3 / RFU, C9orf123 / Fold change vs veh, C9orf123 / RFU, N4BP2L2 / Fold change vs veh, N4BP2L2 / RFU, ARFIP1 / Fold change vs veh, ARFIP1 / RFU, FAM179B / Fold change vs veh, FAM179B / RFU, BCL10 / Fold change vs veh, BCL10 / RFU, UHRF1BP1L / Fold change vs veh, UHRF1BP1L / RFU, BET1 / Fold change vs veh, BET1 / RFU, CNOT2 / Fold change vs veh, CNOT2 / RFU, ZNF268 / Fold change vs veh, ZNF268 / Fold change vs veh, ZNF507 / RFU, DGCR2 / Fold change vs veh, DGCR2 / RFU, WDSUB1 / Fold change vs veh, WDSUB1 / Fold change vs veh, HSP90B1 /// MIR3652 / RFU, ADSS / Fold change vs veh, ADSS / RFU, GK / Fold change vs veh, GK / RFU, ZNF148 / Fold change vs veh, ZNF148 / RFU, TAF9 / Fold change vs veh, TAF9 / RFU, SLC1A5 / Fold change vs veh, SLC1A5 / RFU, SLMO2 / Fold change vs veh, SLMO2 / RFU, ABCC4 / Fold change vs veh, ABCC4 / RFU, LOC101060439 /// RAP1B / Fold change vs veh, LOC101060439 /// RAP1B / RFU, RFX7 / Fold change vs veh, RFX7 / RFU, GTPBP10 / Fold change vs veh, GTPBP10 / RFU, CNEP1R1 / Fold change vs veh, CNEP1R1 / RFU, BIVM-ERCC5 /// ERCC5 / Fold change vs veh, BIVM-ERCC5 /// ERCC5 / RFU, ILF3 / Fold change vs veh, ILF3 / RFU 11762660_at / Fold change /veh 11762660_at / RFU VCAN (11757783_s_at) / Fold change /veh VCAN (11757783_s_at) / RFU DDX43 (11728927_at) / Fold change /veh DDX43 (11728927_at) / RFU KRT8 (11758188_x_at) / Fold change /veh KRT8 (11758188_x_at) / RFU NKD1 (11759106_at) / Fold change /veh NKD1 (11759106_at) / RFU SRD5A1 (11742802_a_at) / Fold change /veh SRD5A1 (11742802_a_at) / RFU TPSAB1 /// TPSB2 (11721975_s_at) / Fold change /veh TPSAB1 /// TPSB2 (11721975_s_at) / RFU GSTM3 (11746129_a_at) / Fold change /veh GSTM3 (11746129_a_at) / RFU IL23R (11737362_x_at) / Fold change /veh IL23R (11737362_x_at) / RFU TMEM51 (11727254_a_at) / Fold change /veh TMEM51 (11727254_a_at) / RFU PIWIL2 (11732686_x_at) / Fold change /veh PIWIL2 (11732686_x_at) / RFU ORM1 (11744905_x_at) / Fold change /veh ORM1 (11744905_x_at) / RFU CCDC152 (11743942_at) / Fold change /veh CCDC152 (11743942_at) / RFU ECM1 (11717891_a_at) / Fold change /veh ECM1 (11717891_a_at) / RFU IL23R (11748794_a_at) / Fold change /veh IL23R (11748794_a_at) / RFU TNFAIP8L3 (11732012_x_at) / Fold change /veh TNFAIP8L3 (11732012_x_at) / RFU MBOAT4 (11741988_at) / Fold change /veh MBOAT4 (11741988_at) / RFU 11764193_at / Fold change /veh 11764193_at / RFU TMEM53 (11763286_at) / Fold change /veh TMEM53 (11763286_at) / RFU MAGEB2 (11727129_at) / Fold change /veh MAGEB2 (11727129_at) / RFU TMEM200A (11744735_a_at) / Fold change /veh TMEM200A (11744735_a_at) / RFU CCDC152 (11751479_a_at) / Fold change /veh CCDC152 (11751479_a_at) / RFU FAM211A (11726209_a_at) / Fold change /veh FAM211A (11726209_a_at) / RFU RGS16 (11746705_a_at) / Fold change /veh RGS16 (11746705_a_at) / RFU VCAN (11755009_s_at) / Fold change /veh VCAN (11755009_s_at) / RFU RHOB (11743442_s_at) / Fold change /veh RHOB (11743442_s_at) / RFU RGS16 (11720943_a_at) / Fold change /veh RGS16 (11720943_a_at) / RFU RGS16 (11720944_at) / Fold change /veh RGS16 (11720944_at) / RFU, VPS4B / Fold change vs veh, VPS4B / RFU, CREB1 / Fold change vs veh, CREB1 / RFU, DNAJC13 / Fold change vs veh, DNAJC13 / RFU, GNAQ / Fold change vs veh, GNAQ / RFU, CDK5R1 / Fold change vs veh, CDK5R1 / RFU, ZRANB3 / Fold change vs veh, ZRANB3 / RFU, CUL4A / Fold change vs veh, CUL4A / RFU, CCNY / Fold change vs veh, CCNY / RFU, UFL1 / Fold change vs veh, UFL1 / RFU, COG3 / Fold change vs veh, COG3 / RFU, DIAPH2 / Fold change vs veh, DIAPH2 / RFU, SKA2 / Fold change vs veh, SKA2 / RFU, AFF3 / Fold change vs veh, AFF3 / RFU, LMF1 / Fold change vs veh, LMF1 / RFU, IPO11 / Fold change vs veh, IPO11 / RFU, DFFB / Fold change vs veh, DFFB / RFU, FOXP1 / Fold change vs veh, FOXP1 / RFU, CARD8 / Fold change vs veh, CARD8 / RFU, STRN3 / Fold change vs veh, STRN3 / RFU, ADK / Fold change vs veh, ADK / RFU, RASSF2 / Fold change vs veh, RASSF2 / RFU, WIPF1 / Fold change vs veh, WIPF1 / RFU, LARP1B / Fold change vs veh, LARP1B / RFU, RASA1 / Fold change vs veh, RASA1 / RFU, RB1 / Fold change vs veh, RB1 / RFU, PPFIA1 / Fold change vs veh, PPFIA1 / RFU, MAT2A / Fold change vs veh, MAT2A / RFU, CCT5 / Fold change vs veh, CCT5 / RFU, WDR92 / Fold change vs veh, WDR92 / RFU, CUX1 / Fold change vs veh, CUX1 / RFU, TTC7A / Fold change vs veh, TTC7A / RFU, TMEM135 / Fold change vs veh, TMEM135 / RFU, DEPTOR / Fold change vs veh, DEPTOR / RFU, CPM / Fold change vs veh, CPM / RFU, DNAJB6 / Fold change vs veh, DNAJB6 / RFU, CACNA2D3 / Fold change vs veh, CACNA2D3 / RFU, DTX4 / Fold change vs veh, DTX4 / RFU, TFCP2 / Fold change vs veh, TFCP2 / RFU, GMCL1 /// GMCL1P1 / Fold change vs veh, GMCL1 /// GMCL1P1 / RFU, AEBP2 / Fold change vs veh, AEBP2 / RFU, SNHG1 /// SNORD22 /// SNORD25 /// SNORD26 /// SNORD27 /// SNORD28 /// SNORD29 /// SNORD31 / Fold change vs veh, SNHG1 /// SNORD22 /// SNORD25 /// SNORD26 /// SNORD27 /// SNORD28 /// SNORD29 /// SNORD31 / Fold change (Aza/veh), C12orf56 (ProbeSet 11735607_a_at) / Fold change (ACY-1035/veh), C12orf56 (ProbeSet 11735607_a_at) / Fold change (Aza/veh), FGFR1OP (ProbeSet 11751329_s_at) / Fold change (ACY-1035/veh), FGFR1OP (ProbeSet 11751329_s_at) / Fold change (Aza/veh), VPS36 (ProbeSet 11739960_a_at) / Fold change (ACY-1035/veh), VPS36 (ProbeSet 11739960_a_at) / RFU SYPL1 (11715823_x_at) / Fold change /veh SYPL1 (11715823_x_at) / RFU IGFBP7 (11715501_s_at) / Fold change /veh IGFBP7 (11715501_s_at) / RFU REEP3 (11722064_at) / Fold change /veh REEP3 (11722064_at) / RFU IGLL1 (11728026_x_at) / Fold change /veh IGLL1 (11728026_x_at): dose or concentration left out as unconfirmed", "conditions": "MV-4-11 cells, 48 hours"}
{"smiles": "Nc1ccc(-c2cccs2)cc1NC(=O)c1ccc2c(c1)cc(C1CC1)n2CCN1CCOCC1", "note": "[ACY-1035]", "values": [{"measurement": "Fold change /veh JSRP1 (11732532_at)", "result": 0.91}]}
